In patent US20260356851A1, “TRICYCLIC COMPOUNDS AND USES THEREOF” (HUTCHMED LIMITED, priority 2023, published 2026):
Read-outs that look alike come from different tables or passages of the source.

How the values were obtained:
Format in all cases: cell-based
[1] = biological target: T1, pERK1/2 (Thr202/Tyr204), NCI-1H358 (KRAS G12C) (Homo sapiens, UniProt P01116, G12C); assay: Assay of intracellular pERK1/2 (Thr202/Tyr204) phosphorylation in NCI-H358 cells (KRAS G12C)
T1 construct: pERK1/2 HTRF read-out
In short: (§1)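 HTRF detection of Thr202/Tyr204-phosphorylated ERK1/2 (665/615 nm ratio) in lysates from cells treated 2 days with serially 3-fold diluted compound.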

[2] = biological target: T2, pERK1/2 (Thr202/Tyr204), PANC-1 (KRAS G121D) (Homo sapiens, UniProt P01116, G12D); assay: Assay of intracellular pERK1/2 (Thr202/Tyr204) phosphorylation in PANC-1 cells (KRAS G12D)
T2 construct: pERK1/2 HTRF read-out
In short: as §1

[3] = biological target: T3, pERK1/2 (Thr202/Tyr204), NCI-1H441 (KRAS G12V) (Homo sapiens, UniProt P01116, G12V); assay: Assay of intracellular pERK1/2 (Thr202/Tyr204) phosphorylation in NCI-H441 cells (KRAS G12V)
T3 construct: pERK1/2 HTRF read-out
In short: as §1

[4] = pERK1/2, 2 days, read-out: NCI-H358 (KRAS G12C) IC50
[5] = pERK1/2, 2 days, read-out: PANC-1 (KRAS G12D) IC50
[6] = pERK1/2, 2 days, read-out: NCI-H441 (KRAS G12V) IC50
[7] = read-out: NCI-H358 (KRAS G12C) IC50, pERK1/2, 2 days
[8] = read-out: PANC-1 (KRAS G12D) IC50, pERK1/2, 2 days
[9] = read-out: NCI-H441 (KRAS G12V) IC50, pERK1/2, 2 days

T3 sequence (P01116 1-188 isoform P01116-2 G12V): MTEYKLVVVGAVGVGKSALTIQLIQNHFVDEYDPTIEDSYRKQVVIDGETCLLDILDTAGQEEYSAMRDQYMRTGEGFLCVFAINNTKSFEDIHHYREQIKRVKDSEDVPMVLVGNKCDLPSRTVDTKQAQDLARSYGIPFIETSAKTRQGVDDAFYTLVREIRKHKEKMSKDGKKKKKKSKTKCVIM
T1 sequence (P01116 1-188 isoform P01116-2 G12C): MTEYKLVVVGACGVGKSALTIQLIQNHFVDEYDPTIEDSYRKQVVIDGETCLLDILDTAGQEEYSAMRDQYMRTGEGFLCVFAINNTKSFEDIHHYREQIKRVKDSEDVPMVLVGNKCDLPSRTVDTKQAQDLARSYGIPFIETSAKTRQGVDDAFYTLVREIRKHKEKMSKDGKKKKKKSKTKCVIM
T2 sequence (P01116 1-188 isoform P01116-2 G12D): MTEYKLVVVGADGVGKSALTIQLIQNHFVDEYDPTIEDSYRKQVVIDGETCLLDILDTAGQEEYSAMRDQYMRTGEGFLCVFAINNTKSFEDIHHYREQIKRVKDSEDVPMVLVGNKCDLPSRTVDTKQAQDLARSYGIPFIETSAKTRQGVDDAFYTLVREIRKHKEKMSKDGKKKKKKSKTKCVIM

Row | IC50 [1, 4] [nM] | IC50 [2, 5] [nM] | IC50 [3, 6] [nM] | Compound | IC50 [1, 7] [nM] | IC50 [2, 8] [nM] | IC50 [3, 9] [nM]
1 | 5 | 13 | 8 | C#Cc1c(F)ccc2cc(O)cc(-c3nc4c5c(nc(OC[C@@]67CCCN6C[C@H](F)C7)nc5c3F)N(C(C)c3cccnc3N)[C@@H](C)CO4)c12 (single isomer, unassigned) [Compound 274, 4-((S)-10-((R or S)-1-(2-aminopyridin-3-yl)ethyl)-4-fluoro-2-(((2R,7aS)-2-fluorotetrahydro-1H-pyrrolizin-7a(5H)-yl)methoxy)-9-methyl-9,10-dihydro-8H-7-oxa-1,3,6,10-tetraazacyclohepta[de]naphthalen-5-yl)-5-ethynyl-6-fluoronaphthalen-2-ol] |  |  | 
2 | 0.4 | 2 | 0.5 | CC(c1cccnc1N)N1CCOc2nc(-c3cc(N)cc(Cl)c3C(F)(F)F)c(F)c3nc(OC[C@@]45CCCN4C[C@H](F)C5)nc1c23 (stereo partly drawn) [Compound 63] |  |  | 
3 | 0.2 | 2 | 0.6 | CC(c1cccnc1N)N1c2nc(OC[C@@]34CCCN3C[C@H](F)C4)nc3c(F)c(-c4c5c(cc6[nH]ncc46)CCC5)nc(c23)OC[C@@H]1C (stereo partly drawn) [Compound 343] |  |  | 
4 | 0.8 | 16 | 3 | Cc1cc(N)cc(-c2nc3c4c(nc(OC[C@@]56CCCN5C[C@H](F)C6)nc4c2F)N(C(C)c2cccnc2N)CCO3)c1C1CC1 (stereo partly drawn) [Compound 146] |  |  | 
5 | > 100 | > 100 | > 100 | Cc1ccnc(N)c1C(C)N1CCOc2nc(-c3cc(N)c(F)c(C)c3C(F)(F)F)c(F)c3nc(OC[C@@]45CCCN4C[C@H](F)C5)nc1c23 (single isomer, unassigned) [Compound 258, 3-((R or S)-1-(5-(5-amino-4-fluoro-3-methyl-2-(trifluoromethyl)phenyl)-4-fluoro-2-(((2R,7aS)-2-fluorotetrahydro-1H-pyrrolizin-7a(5H)-yl)methoxy)-8,9-dihydro-10H-7-oxa-1,3,6,10-tetraazacyclohepta[de]naphthalen-10-yl)ethyl)-4-methylpyridin-2-amine] |  |  | 
6 | 0.2 | 0.6 | 0.2 | Cc1cc(N)cc(-c2nc3c4c(nc(OC[C@@]56CCCN5C[C@H](F)C6)nc4c2F)N(C(C)c2cccnc2N)CCO3)c1C(F)(F)F (single isomer, unassigned) [Compound 61, 3-((R or S)-1-(5-(5-amino-3-methyl-2-(trifluoromethyl)phenyl)-4-fluoro-2-(((2R,7aS)-2-fluorotetrahydro-1H-pyrrolizin-7a(5H)-yl)methoxy)-8,9-dihydro-10H-7-oxa-1,3,6,10-tetraazacyclohepta[de]naphthalen-10-yl)ethyl)pyridin-2-amine] |  |  | 
7 | 0.9 | 10 | 1 | Cc1ccc2[nH]nc(C)c2c1-c1nc2c3c(nc(OC[C@@]45CCCN4C[C@H](F)C5)nc3c1F)N(C(C)c1cccnc1N)[C@@H](C)CO2 (stereo partly drawn) [Compound 319] |  |  | 
8 |  |  |  | CCc1c(F)ccc2cc(OC(=O)N(C)C)cc(-c3nc4c5c(nc(OC[C@@]67CCCN6C[C@H](F)C7)nc5c3F)N(C(C)c3cccnc3N)[C@@H](C)CO4)c12 (stereo partly drawn) [Compound 301] | 25 | 77 | 72
9 | 595 | > 1000 | 643 | C[C@H](c1cccnc1N)N1CCOc2nc(-c3c(C(F)(F)F)ccc4[nH]ncc34)c(F)c3nc(OC[C@@H]4CCN4CC(F)F)nc1c23 (single isomer, unassigned) [Compound 38, 3-((1R or 1S)-1-(2-(((S)-1-(2,2-difluoroethyl)azetidin-2-yl)methoxy)-4-fluoro-5-(5-(trifluoromethyl)-1H-indazol-4-yl)-8,9-dihydro-10H-7-oxa-1,3,6,10-tetraazacyclohepta[de]naphthalen-10-yl)ethyl)pyridin-2-amine] |  |  | 
10 | 0.1 | 1 | 0.3 | [2H]C1([2H])CC[C@@]2(C([2H])([2H])Oc3nc4c5c(nc(-c6cc(N)c(F)c(C)c6C(F)(F)F)c(F)c5n3)OCCN4C(C)c3cccnc3N)C[C@@H](F)CN12 (single isomer, unassigned) [Compound 124, 3-((R or S)-1-(5-(5-amino-4-fluoro-3-methyl-2-(trifluoromethyl)phenyl)-4-fluoro-2-(((2R,7aS)-2-fluorotetrahydro-1H-pyrrolizin-7a(5H)-yl-5,5-d2)methoxy-d2)-8,9-dihydro-10H-7-oxa-1,3,6,10-tetraazacyclohepta[de]naphthalen-10-yl)ethyl)pyridin-2-amine] |  |  | 
11 | 2 | 237 | 7 | C[C@@H](c1cccnc1N)N1CCOc2nc(-c3c(C(F)(F)F)ccc4[nH]ncc34)c(F)c3nc(OC[C@@H]4CCN4CC(F)F)nc1c23 (single isomer, unassigned) [Compound 39, 3-((1R or 1S)-1-(2-(((S)-1-(2,2-difluoroethyl)azetidin-2-yl)methoxy)-4-fluoro-5-(5-(trifluoromethyl)-1H-indazol-4-yl)-8,9-dihydro-10H-7-oxa-1,3,6,10-tetraazacyclohepta[de]naphthalen-10-yl)ethyl)pyridin-2-amine] |  |  | 
12 | 16 | > 100 | 36 | Cc1nc(N)cc(-c2nc3c4c(nc(OC[C@@H]5CCCN5C)nc4c2F)N(C(C)c2cccnc2N)CCO3)c1C(F)(F)F (stereo partly drawn) [Compound 97] |  |  | 
13 | 0.3 | 13 | 1 | Cc1c(F)c(N)cc(-c2nc3c4c(nc(OC[C@@H]5C[C@@H](F)CN5C)nc4c2F)N(C(C)c2cccnc2N)CCO3)c1C(F)(F)F (stereo partly drawn) [Compound 185] |  |  | 
14 | 0.3 | 4 | 0.8 | Cc1cc2[nH]ncc2c(-c2nc3c4c(nc(OC[C@@]56CCCN5C[C@H](F)C6)nc4c2F)N(C(C)c2cccnc2N)CCO3)c1C(F)(F)F (stereo partly drawn) [Compound 372] |  |  | 
15 | 0.6 | 15 | 1 | Cc1cc(O)cc(-c2nc3c4c(nc(OC[C@@]56CCCN5C[C@H](F)C6)nc4c2F)N(C(C)c2cccnc2N)CCO3)c1C1CC1 (stereo partly drawn) [Compound 159] |  |  | 
16 | > 100 | > 100 | > 100 | CC(c1cccnc1N)N1c2nc(OC[C@@]34CCCN3C[C@H](F)C4)nc3c(F)c(-c4cc(=O)[nH]c5ccccc45)nc(c23)OC[C@@H]1C (stereo partly drawn) [Compound 360] |  |  | 
17 | 0.2 | 2 | 0.4 | CC(c1cccnc1N)N1c2nc(OC[C@@H]3C[C@@H](F)CN3C)nc3c(F)c(-c4cc(N)cc(Cl)c4C(F)(F)F)nc(c23)OC[C@@H]1C (single isomer, unassigned) [Compound 287, 3-((R or S)-1-((S)-5-(5-amino-3-chloro-2-(trifluoromethyl)phenyl)-4-fluoro-2-(((2S,4R)-4-fluoro-1-methylpyrrolidin-2-yl)methoxy)-9-methyl-8,9-dihydro-10H-7-oxa-1,3,6,10-tetraazacyclohepta[de]naphthalen-10-yl)ethyl)pyridin-2-amine] |  |  | 
18 | 3 | 2 | 5 | Cc1c(C(F)(F)F)c(-c2nc3c4c(nc(OC[C@@]56CCCN5C[C@H](F)C6)nc4c2F)N(C(C)c2cccnc2N)[C@@H](C)CO3)c2c(Cl)n[nH]c2c1F (single isomer, unassigned) [Compound 382] |  |  | 
19 | 93 | > 100 | > 100 | CNc1ncccc1C(C)N1CCOc2nc(-c3cc(N)c(F)c(C)c3C(F)(F)F)c(F)c3nc(OC[C@@]45CCCN4C[C@H](F)C5)nc1c23 (single isomer, unassigned) [Compound 264, 3-((R or S)-1-(5-(5-amino-4-fluoro-3-methyl-2-(trifluoromethyl)phenyl)-4-fluoro-2-(((2R,7aS)-2-fluorotetrahydro-1H-pyrrolizin-7a(5H)-yl)methoxy)-8,9-dihydro-10H-7-oxa-1,3,6,10-tetraazacyclohepta[de]naphthalen-10-yl)ethyl)-N-methylpyridin-2-amine] |  |  | 
20 | 19 | > 1000 | 36 | Cc1cc2[nH]ncc2c(-c2nc3c4c(nc(OC[C@@H]5CCN5CC(F)F)nc4c2F)N(C(C)c2cccnc2N)CCO3)c1C (stereo partly drawn) [Compound 14] |  |  | 
21 | 11 | 38 | 13 | CC(c1cccnc1N)N1CCOc2nc(-c3cc(N)cc(Cl)c3C(F)(F)F)c(F)c3nc(OC[C@@]45CCCN4C[C@H](F)C5)nc1c23 (single isomer, unassigned) [Compound 72, 3-((R or S)-1-(5-(5-amino-3-chloro-2-(trifluoromethyl)phenyl)-4-fluoro-2-(((2R,7aS)-2-fluorotetrahydro-1H-pyrrolizin-7a(5H)-yl)methoxy)-8,9-dihydro-10H-7-oxa-1,3,6,10-tetraazacyclohepta[de]naphthalen-10-yl)ethyl)pyridin-2-amine] |  |  | 
22 |  |  |  | CNC(=O)Oc1cc(Cl)c(C2CC2)c(-c2nc3c4c(nc(OC[C@@]56CCCN5C[C@H](F)C6)nc4c2F)N(C(C)c2cccnc2N)[C@@H](C)CO3)c1 (stereo partly drawn) [Compound 295] | 0.4 | 0.5 | 1
23 | 2 | 6 | 4 | CC(c1cccnc1N)N1c2nc(OC[C@@]34CCCN3C[C@H](F)C4)nc3c(F)c(-c4cc(O)cc(Cl)c4C(F)(F)F)nc(c23)OC[C@@H]1C (stereo partly drawn) [Compound 315] |  |  | 
24 | 5 | 81 | 8 | CC(c1cccnc1N)N1CCOc2nc(-c3cc(N)cc(Cl)c3C3CC3)c(F)c3nc(OC[C@@H]4CCCN4C)nc1c23 (stereo partly drawn) [Compound 67] |  |  | 
